Reference: patent US20140024030A1, “PRESELECTION OF SUBJECTS FOR THERAPEUTIC TREATMENT WITH OXYGEN SENSITIVE AGENTS BASED IN HYPOXIC STATUS” (priority 2010, published 2014)
Read-outs that look alike come from different tables or passages of the source.

Columns and labels:
[1] = test system: HCT116 human colon carcinoma xenograft; test: HCT116 xenograft model in nude mice (hypoxic tumor); assay type: in vivo; settings: for efficacy at slowing tumor growth in HCT116 (high hypoxia) versus 786O (low hypoxia) tumors: comparison of HCT116 and 786O xenografts in nude mice
Protocol: Human tumor cell lines HCT116 (ATCC #CRL-247; Schroy P C, et al. Cancer 76: 201-209, 1995) and 786-O (ATCC #CRL-1932; Williams R D, et al. In Vitro 12: 623-627, 1976), were obtained from the American Type Culture Collection (Manassus, Va., USA) were cultured using routine methods until a sufficient number of cells were obtained for implantation. Studies were conducted on animals between 7 and 12 weeks of age at implantation. To implant HCT116 tumor cells into nude mice, the cells were trypsinized, washed in PBS and resuspended at a concentration of 75×10^6 cells/ml in McCoy's modified medium with 50% of BD Matrigel® Basement Membrane Matrix (BD Biosciences®, Bedford, Mass., USA). To implant 786-O tumor cells into nude mice, the cells were trypsinized as above, washed in PBS and resuspended at a concentration of 75×10^6 cells/ml in RPMI 1640 medium with 50% of BD Matrigel® Basement Membrane Matrix. Using a 27 gauge needle and 1 cc syringe, 0.1 ml of the cell suspension was injected into the corpus adiposum of nude mice. […] The location permits palpation and measurement of the tumors using external calipers. Tumor volumes (V) were calculated by caliper measurement of the width (W), length (L) and thickness (T) of tumors using the following formula: V=0.5236×(L×W×T).

[2] = test system: locally advanced or metastatic NSCLC; settings: erlotinib 150 mg orally once daily; cited from earlier work
JAK2V617F = JAK2V617F (Homo sapiens, UniProt O60674, V617F); settings: cited from earlier work
[3] = test system: locally advanced, unresectable or metastatic pancreatic cancer; settings: 100 mg cohort, arms: gemcitabine plus erlotinib vs gemcitabine alone, cited from earlier work
[4] = test system: locally advanced or metastatic NSCLC; settings: maintenance, erlotinib 150 mg once daily; difference not statistically significant; cited from earlier work
pancreatic cancer = settings: PTK787 orally daily with gemcitabine, cited from earlier work
[5] = test system: mCRC pretreated with 5-FU/irinotecan; settings: cited from earlier work
[6] = test system: 786-O human renal carcinoma xenograft; test: 786-O xenograft model in nude mice (low hypoxia tumor); assay type: in vivo
Protocol: Human tumor cell lines HCT116 (ATCC #CRL-247; Schroy P C, et al. Cancer 76: 201-209, 1995) and 786-O (ATCC #CRL-1932; Williams R D, et al. In Vitro 12: 623-627, 1976), were obtained from the American Type Culture Collection (Manassus, Va., USA) were cultured using routine methods until a sufficient number of cells were obtained for implantation. Studies were conducted on animals between 7 and 12 weeks of age at implantation. To implant HCT116 tumor cells into nude mice, the cells were trypsinized, washed in PBS and resuspended at a concentration of 75×10^6 cells/ml in McCoy's modified medium with 50% of BD Matrigel® Basement Membrane Matrix (BD Biosciences®, Bedford, Mass., USA). To implant 786-O tumor cells into nude mice, the cells were trypsinized as above, washed in PBS and resuspended at a concentration of 75×10^6 cells/ml in RPMI 1640 medium with 50% of BD Matrigel® Basement Membrane Matrix. Using a 27 gauge needle and 1 cc syringe, 0.1 ml of the cell suspension was injected into the corpus adiposum of nude mice. The corpus adiposum is a fat body located in the ventral abdominal vicera in the right quadrant of the abdomen at the juncture of the os coxae (pelvic bone) and the os femoris (femur). The location permits palpation and measurement of the tumors using external calipers. Tumor volumes (V) were calculated by caliper measurement of the width (W), length (L) and thickness (T) of tumors using the following formula: V=0.5236×(L×W×T). Animals were randomized into treatment groups so that the average tumor volumes of each group were similar at the start of dosing.
A tumor model in which the tumors have relatively high and low levels of LDH5, indicating high and low levels of hypoxia, using human tumor cell lines HCT116 and 786-O was established as set forth in the previous example.
As above, HCT116 and 786-O cells were cultured and implanted into nude mice using the methods in the previous example. Tumor growth was measured using calipers. Prior to treatment with the various agents, tumors were permitted to develop in vivo until they reached approximately 150 mm^3 in volume, which typically required 2-3 weeks following implantation. Animals were randomized into treatment groups so that the average tumor volumes of each group were similar at the start of dosing.
Tumor volume was monitored throughout the course of the study, until up to about 40 days from the date of tumor implantation. The exact number of days of the study depended on a number of factors including, for example, the number of days from implantation for the tumors to reach the desired volume.

[7] = test system: metastatic colorectal cancer (mCRC); settings: cited from earlier work
[8] = test system: metastatic colorectal cancer (mCRC); settings: cited from earlier work; remark: listed apart in the source
[9] = test system: metastatic colorectal cancer; settings: bevacizumab and chemotherapy vs bevacizumab and chemotherapy alone, cited from earlier work; for median PFS: oxaliplatin stratum, arms: panitumumab
[10] = test system: metastatic colorectal cancer; settings: arms: bevacizumab plus 5-FU/Leucovorin vs IFL regimen alone; cited from earlier work
[11] = test system: metastatic colorectal cancer; settings: bevacizumab plus 5-FU/Leucovorin vs 5-FU/Leucovorin alone; not statistically significant; cited from earlier work
[12] = test system: metastatic pancreatic cancer; settings: cited from earlier work
renal cancer = settings: cited from earlier work
solid tumors = settings: once-weekly dosing, evaluable patients; cited from earlier work
[13] = test system: advanced relapsed/refractory NSCLC; settings: cited from earlier work
[14] = test system: phosphorylated RPS6 (ribosomal protein S6); settings: TSC1-deficient cells; cited from earlier work
[15] = test system: advanced pancreatic cancer; settings: Phase III, combination with Gemcitabine; cited from earlier work
[16] = test system: advanced pancreatic cancer; settings: Phase II, combination chemotherapy with Gemcitabine; cited from earlier work
[17] = test system: EGFR-expressing, metastatic carcinoma of the colon or rectum (mCRC); settings: panitumumab 6 mg/kg every two weeks plus best supportive care; cited from earlier work
[18] = test system: gastrointestinal stromal tumor (GIST); settings: cited from earlier work
[19] = test system: GIST following progression on or intolerance to imatinib; settings: 50 mg once daily Schedule 4/2; 5 of 55 patients; cited from earlier work
treatment-naïve RCC = settings: cited from earlier work

JAK2V617F, sequence (O60674 whole entry V617F): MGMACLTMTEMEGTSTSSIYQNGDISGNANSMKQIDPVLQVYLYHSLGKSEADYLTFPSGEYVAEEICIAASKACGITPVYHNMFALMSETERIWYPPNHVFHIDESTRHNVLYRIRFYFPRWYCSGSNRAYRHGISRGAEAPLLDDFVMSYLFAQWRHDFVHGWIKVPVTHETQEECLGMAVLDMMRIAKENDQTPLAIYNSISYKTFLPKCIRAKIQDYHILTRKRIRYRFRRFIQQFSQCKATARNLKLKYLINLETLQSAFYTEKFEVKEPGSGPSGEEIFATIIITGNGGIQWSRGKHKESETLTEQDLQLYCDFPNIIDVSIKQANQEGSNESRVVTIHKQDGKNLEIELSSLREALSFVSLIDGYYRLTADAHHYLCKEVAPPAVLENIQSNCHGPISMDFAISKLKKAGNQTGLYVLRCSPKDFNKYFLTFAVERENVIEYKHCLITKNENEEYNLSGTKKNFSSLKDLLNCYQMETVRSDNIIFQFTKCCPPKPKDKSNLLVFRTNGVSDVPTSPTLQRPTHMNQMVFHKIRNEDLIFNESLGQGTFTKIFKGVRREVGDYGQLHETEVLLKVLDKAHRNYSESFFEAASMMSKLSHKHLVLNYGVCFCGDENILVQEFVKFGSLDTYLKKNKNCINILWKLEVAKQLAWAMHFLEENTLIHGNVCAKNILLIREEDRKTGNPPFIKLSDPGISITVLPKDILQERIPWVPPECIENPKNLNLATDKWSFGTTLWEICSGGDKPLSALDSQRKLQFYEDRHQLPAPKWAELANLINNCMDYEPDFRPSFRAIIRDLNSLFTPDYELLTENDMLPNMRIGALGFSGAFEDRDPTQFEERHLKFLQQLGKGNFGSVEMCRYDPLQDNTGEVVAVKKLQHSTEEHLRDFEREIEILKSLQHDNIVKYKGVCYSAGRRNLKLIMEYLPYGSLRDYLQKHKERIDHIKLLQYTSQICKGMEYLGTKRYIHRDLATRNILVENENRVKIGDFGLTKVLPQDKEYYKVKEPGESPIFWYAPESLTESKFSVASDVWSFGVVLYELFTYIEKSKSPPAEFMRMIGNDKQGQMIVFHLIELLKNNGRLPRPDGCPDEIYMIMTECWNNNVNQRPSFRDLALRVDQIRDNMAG

Q: What does the source list for `C#Cc1cccc(Nc2ncnc3cc(OCCOC)c(OCCOC)cc23)c1` [erlotinib]?
A: efficacy at slowing tumor growth in HCT116 (high hypoxia) versus 786O (low hypoxia) tumors [1]: more effective at slowing tumor growth in tumors with high levels of hypoxia; tumor growth rate versus control ([1]; erlotinib 1x/week P.O., p=0.0224): reduced the growth rate of the tumor as compared to control; median response duration [2]: 34.3 weeks; progression free survival [2]: 9.9 weeks; survival [2]: 6.7 months; tumor response [2]: 8.9%; JAK2V617F activity (JAK2V617F): potent inhibitor of JAK2V617F activity; progression free survival ([3]; p=0.006): 3.8 months; survival ([3]; p=0.028): 6.4 months; overall survival [4]: 12 weeks

Q: What does the source list for `Clc1ccc(Nc2nnc(Cc3ccncc3)c3ccccc23)cc1` [PTK787, N-(4-chlorophenyl)-4-(pyridin-4-ylmethyl)phthalazin-1-amine]?
A: duration of stable disease (pancreatic cancer): 2-6 months; patients with stable disease as the best response (pancreatic cancer; six of eleven patients): 55%; PFS HR ([5]; CONFIRM 2 - High LDH, N 250, PTK787 1250 mg/day vs placebo): 0.63; PFS HR ([5]; CONFIRM 2 - Low LDH, N 605): 0.95; tumor burden versus control ([6]; 50 mg/kg 5x/week P.O., p=0.7805): no difference in tumor burden; tumor burden versus control ([6]; XL765 study (FIG. 4B), 30 mg/kg 5x/week P.O., p=0.7682): no difference in tumor burden; tumor burden versus control ([6]; erlotinib study (FIG. 5B), 1x/week P.O., p=0.8548): no difference in tumor burden; tumor growth versus control ([1]; 50 mg/kg 5x/week P.O., p=0.1209): reduced the growth of the tumor as compared to control; efficacy at slowing tumor growth in HCT116 (high hypoxia) versus 786O (low hypoxia) tumors [1]: more effective at slowing tumor growth in tumors with high levels of hypoxia; PFS HR ([7]; All CONFIRM 1 & 2 High LDH Patients, N 566): 0.62; PFS HR ([7]; All CONFIRM 1 & 2 Patients, N 2023): 0.82; PFS HR ([8]; CONFIRM 1 - High LDH, N 316, PTK787 1250 mg/day vs placebo): 0.61; PFS HR ([8]; CONFIRM 1 - Low LDH, N 852): 0.93

Q: For “bevacizumab: recombinant humanized monoclonal IgG1 antibody that binds to and inhibits human vascular endothelial growth factor (VEGF)”, which “tumor burden versus control” value ([6]; higher dose of bevacizumab (4 mg/kg) i.p., p=0.011) is on record?
A: Its value is “greatest tumor burden”.

Q: What about the “tumor burden versus control” value ([6]; low dose bevacizumab (1 mg/kg) i.p., p=0.437) of the same compound?
A: The value was “no significant difference in tumor burden”.

Q: And the “tumor growth versus control” value ([1]; bevacizumab 4 mg/kg i.p., p=0.0424)?
A: The value was “reduced the growth of the tumor as compared to control”.

Q: And the “efficacy at slowing tumor growth in HCT116 (high hypoxia) versus 786O (low hypoxia) tumors” value [1]?
A: Its value is “more effective at slowing tumor growth in tumors with high levels of hypoxia”.

Q: And the “tumor growth versus control” value ([1]; lower dose of bevacizumab (1 mg/kg) i.p., p=0.1274)?
A: The value was “small trend to decreased tumor growth”.

Q: What about the “median PFS” value [9] of the same compound?
A: The value was 10.5 months.

Q: What about the progression-free survival [10] of the same compound?
A: The progression-free survival was 8.7 months.

Q: And the “improvement in median survival” value [11]?
A: The value was 29%.

Q: What about the “progression free survival HR” value ([12]; bevacizumab vs placebo, both with gemcitabine and erlotinib, P=0.0002) of the same compound?
A: The value was 0.73.

Q: And the median overall survival ([12]; bevacizumab, gemcitabine and erlotinib arm (306 patients))?
A: The median overall survival was 7.1 months.

Q: And the “patients with decreased tumor size” value (renal cancer; arms: bevacizumab and interferon-alpha vs interferon-alpha alone)?
A: The value was 30%.

Q: And the “increase in progression-free survival time” value (renal cancer; interferon-alpha with bevacizumab vs interferon-alpha alone)?
A: Its value is “about 5 months”.

Q: With `CC(C)c1cc(-c2nnc(O)n2-c2ccc3c(ccn3C)c2)c(O)cc1O` [ganetespib] as the compound, how does the “efficacy at slowing tumor growth in HCT116 (high hypoxia) versus 786O (low hypoxia) tumors” value [1] read?
A: Its value is “not found to work better in the tumors with a higher level of hypoxia”.

Q: And the disease control (solid tumors)?
A: The disease control was “more than half of all evaluable patients experienced disease control”.

Q: And the disease control rate ([13]; broad population, single agent)?
A: The disease control rate was 54%.

Q: And the “patients with durable, objective responses” value ([13]; patients with ALK rearrangement, four of eight)?
A: The value was 50%.

Q: And the “patients who received ganetespib for 16 weeks or more” value ([13]; patients with ALK rearrangement, seven of eight)?
A: Its value is 88%.

Q: What about the “patients with tumor shrinkage” value ([13]; patients with ALK rearrangement, six of eight) of the same compound?
A: The value was 75%.

Q: What does the source list for `Cn1c(=O)n(-c2ccc(C(C)(C)C#N)cc2)c2c3cc(-c4cnc5ccccc5c4)ccc3ncc21` [BEZ235]?
A: levels of phosphorylated RPS6 [14]: significantly reduce the levels of phosphorylated RPS6; efficacy at slowing tumor growth in HCT116 (high hypoxia) versus 786O (low hypoxia) tumors [1]: not found to work better in the tumors with a higher level of hypoxia

Q: Which “survival rates versus Gemcitabine alone” value [15] does the source give for `CNC(=O)c1ccccc1Sc1ccc2c(/C=C/c3ccccn3)n[nH]c2c1` [Axitinib, N-Methyl-2-[[3-[(E)-2-pyridin-2-ylethenyl]-1H-indazol-6-yl]sulfanyl]benzamide] here?
A: Its value is “no evidence of improved survival rates”.

Q: And the response [16]?
A: The response was “good response”.

Q: For “panitumumab: recombinant, human IgG2 kappa monoclonal antibody that binds to the human EGFR”, which PFS [17] is on record?
A: Its PFS is 96 days.

Q: What about the “efficacy at slowing tumor growth in HCT116 (high hypoxia) versus 786O (low hypoxia) tumors” value [1] of the same compound?
A: The value was “not found to work better in the tumors with a higher level of hypoxia”.

Q: What about the “median PFS” value [9] of the same compound?
A: Its value is 8.8 months.

Q: And the PFS hazard ratio ([9]; panitumumab, p-value=0.0024)?
A: Its PFS hazard ratio is 1.44.

Q: Which “median OS” value ([18]; final analysis, sunitinib arm) does the source give for `CCN(CC)CCNC(=O)c1c(C)[nH]c(/C=C2\C(=O)Nc3ccc(F)cc32)c1C` [sunitinib] here?
A: Its value is 72.7 weeks.

Q: What about the “time to tumor progression (TTP) versus placebo” value ([18]; interim analysis, 50 mg once daily Schedule 4/2) of the same compound?
A: The value was “statistically significant advantage for sunitinib over placebo in TTP”.

Q: And the “OS HR” value ([18]; sunitinib vs placebo, final analysis)?
A: The value was 0.876.

Q: What about the “efficacy at slowing tumor growth in HCT116 (high hypoxia) versus 786O (low hypoxia) tumors” value [1] of the same compound?
A: Its value is “not found to work better in the tumors with a higher level of hypoxia”.

Q: And the PR rate [19]?
A: The PR rate was 9.1%.

Q: And the “PFS versus IFN-α” value (treatment-naïve RCC; 50 mg sunitinib once daily Schedule 4/2)?
A: The value was “statistically significant advantage for sunitinib over IFN-α in the endpoint of PFS”.

Q: And the “median OS” value (treatment-naïve RCC; final analysis, arms: sunitinib vs IFN-α)?
A: The value was 114.6 weeks.

Q: What about the “ORR versus IFN-α arm” value (treatment-naïve RCC; in vivo) of the same compound?
A: Its value is “higher”.
